Test results from ChEMBL document CHEMBL6109146, “Discovery of New Pyrazolone Carbothioamide Derivatives as Potent Antifungal Agents for the Treatment of Candidiasis and Cryptococcosis” (J Med Chem, 2025).
Converted amounts (≈) assume the structure as drawn. The source made the active and inactive calls. The calls are words filed in the database; no cut-off is given here.

Legend:
[1] = Half-life in male ICR mouse at 2 mg/kg, iv measured after 24 hrs by LC-MS/MS analysis; type: ADME, organism-based; conditions: in vivo
[2] = Cmax in male ICR mouse at 20 mg/kg, po measured after 24 hrs by LC-MS/MS analysis; type: ADME, organism-based; conditions: in vivo
[3] = AUC (0 to infinity) in male ICR mouse at 20 mg/kg, po measured after 24 hrs by LC-MS/MS analysis; type: ADME, organism-based; conditions: in vivo
[4] = Oral bioavailability in male ICR mouse at 20 mg/kg measured after 24 hrs by LC-MS/MS analysis; type: ADME, organism-based; conditions: in vivo
[5] = test system: Candida albicans; assay: Antifungal activity against Candida albicans SC5314 assessed as inhibition of fungal growth incubated for 48 to 72 hrs by microplate reader analysis; type: functional, organism-based; conditions: time 48-72 hrs
[6] = test system: Cryptococcus neoformans; assay: Antifungal activity against Cryptococcus neoformans H99 assessed as inhibition of fungal growth incubated for 48 to 72 hrs by microplate reader analysis; type: functional; conditions: time 48-72 hrs
[7] = test system: Cryptococcus neoformans; assay: Antifungal activity against Cryptococcus neoformans HN-68 assessed as inhibition of fungal growth incubated for 48 to 72 hrs by microplate reader analysis; type: functional; conditions: time 48-72 hrs
[8] = test system: Nakaseomyces glabratus; assay: Antifungal activity against Candida glabrata 8535 assessed as inhibition of fungal growth incubated for 48 to 72 hrs by microplate reader analysis; type: functional; conditions: time 48-72 hrs
[9] = test system: Nakaseomyces glabratus; assay: Antifungal activity against Candida glabrata 0161 assessed as inhibition of fungal growth incubated for 48 to 72 hrs by microplate reader analysis; type: functional; conditions: time 48-72 hrs
[10] = Cytotoxicity against human L02 cells assessed as inhibition of cell proliferation incubated for 48 hrs by WST-8 reagent based assay; type: toxicity
[11] = Cytotoxicity against HUVEC cells assessed as inhibition of cell proliferation incubated for 48 hrs by WST-8 reagent based assay; type: toxicity; conditions: human
[12] = test system: Nakaseomyces glabratus; assay: Antifungal activity against Candida glabrata 0161 assessed as inhibition of fungal growth at 0.13 microg/ml incubated up to 72 hrs by microplate reader analysis relative to control; type: functional
[13] = test system: Cryptococcus neoformans; assay: Antifungal activity against Cryptococcus neoformans H99 assessed as inhibition of fungal growth at 0.031 microg/ml incubated for 72 hrs by microplate reader analysis; type: functional, organism-based; conditions: dose 0.031 µg/ml
[14] = test system: Cryptococcus neoformans; assay: Antifungal activity against Cryptococcus neoformans H99 assessed as inhibition of fungal growth at 0.13 microg/ml incubated for 72 hrs by microplate reader analysis relative to control; type: functional
[15] = test system: Nakaseomyces glabratus; assay: Antifungal activity against Candida glabrata 0161 assessed as inhibition of fungal growth at 0.5 to 32 microg/ml incubated for 48 hrs by spot-plating assay; type: functional, organism-based; conditions: dose 0.5-32 µg/ml
[16] = test system: Nakaseomyces glabratus; assay: Antifungal activity against Candida glabrata 0161 assessed as inhibition of fungal cell colony formation at 0.5 microg/ml incubated for 48 hrs by spot-plating assay; type: functional, organism-based; conditions: dose 0.5 µg/ml
[17] = test system: Nakaseomyces glabratus; assay: Inhibition of biofilm formation in Candida glabrata 0161 at 2 to 32 microg/ml incubated for 24 hrs by XTT reagent based assay; type: functional, organism-based; conditions: dose 2-32 µg/ml
[18] = test system: Cryptococcus neoformans; assay: Inhibition of biofilm formation in Cryptococcus neoformans H99 at 32 microg/ml incubated for 24 hrs by XTT reagent based assay relative to control; type: functional
[19] = test system: Nakaseomyces glabratus; assay: Inhibition of matured biofilm in Candida glabrata 0161 at 2 to 32 microg/ml incubated for 24 hrs by XTT reagent based assay; type: functional, organism-based; conditions: dose 2-32 µg/ml
[20] = test system: Cryptococcus neoformans; assay: Inhibition of matured biofilm in Cryptococcus neoformans H99 at 2 to 32 microg/ml incubated for 24 hrs by XTT reagent based assay; type: functional, organism-based; conditions: dose 2-32 µg/ml
[21] = test system: Cryptococcus neoformans; assay: Inhibition of capsule formation in Cryptococcus neoformans H99 at 4 microg/ml incubated for 24 hrs by light microscopic analysis; type: functional, organism-based; conditions: dose 4.0 µg/ml
[22] = test system: Cryptococcus neoformans; assay: Inhibition of capsule formation in Cryptococcus neoformans H99 at 8 microg/ml incubated for 24 hrs by light microscopic analysis; type: functional
[23] = test system: Cryptococcus neoformans; assay: Induction of morphological changes in Cryptococcus neoformans H99 assessed as cell wall damage at 4 microg/ml incubated for 8 hrs by transmission electron microscopic analysis; type: functional, organism-based; conditions: dose 4.0 µg/ml
[24] = test system: Cryptococcus neoformans; assay: Induction of morphological changes in Cryptococcus neoformans H99 assessed as cell membrane damage by measuring plasmolysis at 4 microg/ml incubated for 8 hrs by transmission electron microscopic analysis; type: functional, organism-based; conditions: dose 4.0 µg/ml
[25] = test system: Cryptococcus neoformans; assay: Induction of morphological changes in Cryptococcus neoformans H99 assessed as mitochondrial fragmentation at 4 microg/ml incubated for 8 hrs by transmission electron microscopic analysis; type: functional, organism-based; conditions: dose 4.0 µg/ml
[26] = test system: Cryptococcus neoformans; assay: Induction of morphological changes in Cryptococcus neoformans H99 assessed as vacuole fragmentation at 4 microg/ml incubated for 8 hrs by transmission electron microscopic analysis; type: functional, organism-based; conditions: dose 4.0 µg/ml
[27] = test system: Cryptococcus neoformans; assay: Induction of ROS accumulation in Cryptococcus neoformans H99 assessed as increase in intracellular ROS level by measuring intense green fluorescence at 4 microg/ml incubated for 24 hrs by DCFH-DA probe based fluorescence microscopic analysis; type: functional, organism-based; conditions: dose 4.0 µg/ml
[28] = test system: Cryptococcus neoformans; assay: Induction of oxidative damage in Cryptococcus neoformans H99 assessed as increase in MDA level at 4 microg/ml incubated for 24 hrs relative to control; type: functional; conditions: dose 4 µg/ml
[29] = test system: Cryptococcus neoformans; assay: Upregulation of SOD1 gene expression in Cryptococcus neoformans H99 at 4 microg/ml incubated for 8 hrs by qRT-PCR analysis; type: functional; conditions: dose 4.0 µg/ml
[30] = test system: Cryptococcus neoformans; assay: Upregulation of TRX1 gene expression in Cryptococcus neoformans H99 at 4 microg/ml incubated for 8 hrs by qRT-PCR analysis; type: functional; conditions: dose 4.0 µg/ml
[31] = test system: Nakaseomyces glabratus; assay: Upregulation of SOD1 gene expression in Candida glabrata 0161 incubated for 8 hrs by qRT-PCR analysis; type: functional
[32] = test system: Nakaseomyces glabratus; assay: Upregulation of TRX1 gene expression in Candida glabrata 0161 incubated for 8 hrs by qRT-PCR analysis; type: functional
[33] = test system: Cryptococcus neoformans; assay: Antifungal activity against Cryptococcus neoformans H99 assessed as inhibition of fungal growth by measuring fold increase in MIC in presence of Fe(III) ion; type: functional
[34] = test system: Cryptococcus neoformans; assay: Antifungal activity against Cryptococcus neoformans H99 assessed as inhibition of fungal growth in presence of 1 to 10 microg/ml Fe(II) ion; type: functional, organism-based
[35] = test system: Cryptococcus neoformans; assay: Antifungal activity against Cryptococcus neoformans H99 assessed as inhibition of fungal growth in presence of 1 to 10 microg/ml Fe(III) ion; type: functional, organism-based
[36] = test system: Nakaseomyces glabratus; assay: Reduction in intracellular free iron ions level in Candida glabrata 0161 incubated for 24 hrs by absorbance based analysis; type: functional
[37] = test system: Nakaseomyces glabratus; assay: Antifungal activity against Candida glabrata 0161 infected in candidiasis female ICR mouse model assessed as reduction in fungal burden in kidney at 20 mg/kg, po pre-infected with fungi for 3 hrs followed by compound administration and measured after 5 days; type: functional, organism-based; conditions: time 5.0 day
[38] = test system: Nakaseomyces glabratus; assay: (§1) Antifungal activity against Candida glabrata 0161 infected in candidiasis female ICR mouse model assessed as tight arrangement of renal tubular epithelial cells at 20 mg/kg, ip pre-infected with fungi for 3 hrs followed by compound administration and measured after 5 days by H and E staining based analysis; type: functional, organism-based; conditions: time 5.0 day
[39] = test system: Nakaseomyces glabratus; assay: as §1, with “reduction in detachment” for “tight arrangement”; type: functional, organism-based; conditions: time 5.0 day
[40] = test system: Cryptococcus neoformans; assay: Antifungal activity against Cryptococcus neoformans H99 infected in cryptococcosis female ICR mouse model assessed as intact cellular structures in brain cortex at 20 mg/kg, ip pre-infected with fungi for 3 hrs followed by compound administration and measured after 5 days by H and E staining based analysis; type: functional, organism-based; conditions: time 5.0 day
[41] = test system: Candida glabrata; assay: Binding affinity to Candida glabrata KIX domain assessed as inhibition constant
[42] = Clearance in male ICR mouse at 2 mg/kg, iv measured after 24 hrs by LC-MS/MS analysis; type: ADME, organism-based; conditions: in vivo

half-life [1]: 2.12 h | Cmax [2]: 1720 ng/mL | AUC(0-inf) [3]: 4740 ng·h/mL | bioavailability [4]: 22.6% | MIC80 [6]: 0.38 nM (≈ 0.12 ng/mL) | MIC80 [7]: 1.2 10^-4 ug/ml | MIC80 [8]: 1.2 10^-4 ug/ml | MIC80 [9]: 0.38 nM (≈ 0.12 ng/mL) | K [41]: 174 µM | clearance [42]: 16.2 mL/min/kg
Compound: Nc1cc(=O)n(C(=S)Nc2ccc(C3CCCCC3)cc2)[nH]1
Activity [5]: Active | IC50 at 48 h [10]: 13.9 µg/mL (≈ 44 µM) | IC50 at 48 h [11]: 0.64 µg/mL (≈ 2.02 µM) | inhibition at 0.13 µg/mL [12]: 100% | Activity [13]: Active; Significantly Better Inhibitory Effect Observed Than Fluconazole At 8.0 Microg/Ml | inhibition at 0.13 µg/mL [14]: 100% | Activity [15]: Active | Activity [16]: Active | inhibition [17]: Moderate_effect | inhibition at 32 µg/mL [18]: 77% | inhibition [19]: Moderate_effect | inhibition [20]: Active; Better Inhibitory Effect Observed Under High Concentration | inhibition [21]: Active | inhibition at 8 µg/mL [22]: 100% | Activity [23]: inactive | Activity [24]: Active | Activity [25]: Active | Activity [26]: Active | Activity [27]: Active | Activity [28]: ~20% | Activity [29]: Active | Activity [30]: Active | Activity [31]: Active | Activity [32]: Active | fold change (FC) [33]: ~1000 | Activity [34]: inactive | Activity [35]: inactive | Activity [36]: Active | Activity [37]: Active | Activity [38]: Active | Activity [39]: Active | Activity [40]: Active
